For this data set the following is noted: Liquid, Ebulliometric method (Recirculating still).

Numbers after ± are expanded uncertainties.

Turning to `CC(C)=O` [acetone], the vapor or sublimation pressure – broadly, the pressure of vapour in equilibrium with the condensed phase – stood at 57.96 ± 0.47 kPa (314 K); 64.95 ± 0.49 kPa (317 K); 72.6 ± 0.54 kPa (320 K); 80.96 ± 0.58 kPa (323 K); 90.08 ± 0.64 kPa (326 K); 100 ± 0.69 kPa (329 K). Besides, the “vapor or sublimation pressure” value worked out at 110.78 ± 0.75 kPa (332 K), 122.47 ± 0.81 kPa (335 K) and 135.11 ± 0.85 kPa (338 K).

In the case of `CO` [methanol], the “vapor or sublimation pressure” value by setting is: (315 K) 38.33 ± 0.38 kPa; (318 K) 43.97 ± 0.4 kPa; (321 K) 50.29 ± 0.45 kPa; (324 K) 57.36 ± 0.5 kPa; (327 K) 65.25 ± 0.56 kPa; (330 K) 74.02 ± 0.62 kPa. The “vapor or sublimation pressure” value by setting is: (333 K) 83.76 ± 0.68 kPa; (336 K) 94.55 ± 0.76 kPa; (339 K) 106.47 ± 0.84 kPa; (342 K) 119.61 ± 0.92 kPa; (345 K) 134.07 ± 0.96 kPa.

For the origin of these results see the NIST ThermoML archive (doi:10.1016/j.fluid.2006.09.007).
